Test results: patent US9809583B2 (priority 2014, dated 2017)
Where two headings read alike, the source gives them in different places.

Assays:
androgen receptor (hAR) [1] = target: T1, androgen receptor (hAR) (Homo sapiens (Human), UniProt P10275); test: Test of transcriptional activity (hAR / ARE-Luc dual-luciferase assay in CHO cells); type: cell-based; settings: EC50 [nM] (mean ± SE), CHO cells with hAR and ARE-Luc, 24 hours; 10 nM DHT = 100%
Procedure, shortened: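 Compound at 0.1˜10,000 nM applied for 24 h to CHO cells carrying transfected human AR and an ARE-driven luciferase reporter. Cells were grown 24 h before transfection; readout was dual-luciferase luminescence.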

androgen receptor (hAR) [2] = target: T1, androgen receptor (hAR); test: biochemical; type: binding
Protocol: In order to examine binding ability of the agonists of the present invention to androgen receptors, the following in-vitro experiment was performed. African green monkey kidney fibroblast-like cell line, COS-7 (ATCC, #CRL-1651) was seeded in a 48-well plate at a density of 2.5×10^4 cells/well, and cultured for 24 hours. Then, a plasmid hAR-mixed medium was added thereto. […] Thereafter, the cells were lysed and the amount of [3H]MIB bound to the intracellular androgen receptors was measured using a radiation dosimeter.

[3] = 1 nM [3H]MIB, hAR-transfected COS-7 cells, 2 hours, read-out: IC50 [nM] (mean ± SE)

T1 sequence (P10275 whole entry): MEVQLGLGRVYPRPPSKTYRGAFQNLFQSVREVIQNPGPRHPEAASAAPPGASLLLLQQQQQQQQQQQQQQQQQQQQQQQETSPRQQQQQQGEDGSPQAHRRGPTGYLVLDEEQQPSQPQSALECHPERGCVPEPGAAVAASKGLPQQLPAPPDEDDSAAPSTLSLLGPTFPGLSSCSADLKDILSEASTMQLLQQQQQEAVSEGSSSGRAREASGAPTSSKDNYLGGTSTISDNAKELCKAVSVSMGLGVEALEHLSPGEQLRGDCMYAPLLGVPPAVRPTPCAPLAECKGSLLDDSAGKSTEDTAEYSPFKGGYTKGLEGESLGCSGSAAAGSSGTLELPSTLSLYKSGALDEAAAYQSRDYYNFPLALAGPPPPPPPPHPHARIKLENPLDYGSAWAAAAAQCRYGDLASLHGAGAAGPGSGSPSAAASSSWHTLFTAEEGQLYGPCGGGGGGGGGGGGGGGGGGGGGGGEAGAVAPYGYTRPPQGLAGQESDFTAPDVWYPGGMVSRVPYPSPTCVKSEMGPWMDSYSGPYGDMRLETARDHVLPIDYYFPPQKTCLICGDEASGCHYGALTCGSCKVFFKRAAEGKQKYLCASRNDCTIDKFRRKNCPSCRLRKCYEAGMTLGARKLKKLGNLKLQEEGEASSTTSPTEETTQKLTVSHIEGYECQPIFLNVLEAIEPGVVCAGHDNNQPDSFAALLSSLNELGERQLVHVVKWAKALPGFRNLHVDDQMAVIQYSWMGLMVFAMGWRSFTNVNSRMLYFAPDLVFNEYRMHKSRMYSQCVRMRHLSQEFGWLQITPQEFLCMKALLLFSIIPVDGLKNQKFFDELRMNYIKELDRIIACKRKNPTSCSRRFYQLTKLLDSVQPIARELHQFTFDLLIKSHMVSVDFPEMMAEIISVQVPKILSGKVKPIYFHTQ

Structure (SMILES)	EC50 (androgen receptor (hAR) [1])	IC50 (androgen receptor (hAR) [2]; [3])	IC50 (androgen receptor (hAR) [2])
N#Cc1ccc(N2C[C@@H](COc3cc(F)c(F)cc3F)O[C@@H]2C(F)(F)F)cc1C(F)(F)F [Example 13, 2-(trifluoromethyl)-4-((2R,5S)-2-(trifluoromethyl)-5-((2,4,5-trifluorophenoxy)methyl)oxazolidin-3-yl)benzonitrile]	9.9 nM	14.5 nM	
N#Cc1ccc(N2C[C@@H](CSc3ccc(Cl)cc3)O[C@@H]2C(F)(F)F)cc1C(F)(F)F [Example 26, 4-((2R,5S)-5-(((4-chlorophenyl)thio)methyl)-2-(trifluoromethyl)oxazolidin-3-yl)-2-(trifluoromethyl)benzonitrile]	8.6 nM	43.6 nM	
N#Cc1ccc(OC[C@@H]2CN(c3ccc(C#N)c(C(F)(F)F)c3)[C@@H](C(F)(F)F)O2)c(F)c1 [Example 11, 4-((2R,5S)-5-((4-cyano-2-fluorophenoxy)methyl)-2-(trifluoromethyl)oxazolidin-3-yl)-2-(trifluoromethyl)benzonitrile]	4.5 nM	10.5 nM	
N#Cc1ccc(SC[C@@H]2CN(c3ccc(C#N)c(C(F)(F)F)c3)[C@@H](C(F)(F)F)O2)cc1 [Example 29, 4-((2R,5S)-5-(((4-cyanophenyl)thio)methyl)-2-(trifluoromethyl)oxazolidin-3-yl)-2-(trifluoromethyl)benzonitrile]	7.5 nM	14.1 nM	
N#Cc1ccc(COC[C@@H]2CN(c3ccc(C#N)c(C(F)(F)F)c3)[C@@H](C(F)(F)F)O2)cc1 [Example 2, 4-((2R,5S)-5-(((4-cyanobenzyl)oxy)methyl)-2-(trifluoromethyl)oxazolidin-3-yl)-2-(trifluoromethyl)benzonitrile]	133 nM	23.9 nM	
N#Cc1ccc(N2C[C@@H](COc3ccc(F)c(F)c3)O[C@@H]2C(F)(F)F)cc1C(F)(F)F [Example 10, 4-((2R,5S)-5-((3,4-difluorophenoxy)methyl)-2-(trifluoromethyl)oxazolidin-3-yl)-2-(trifluoromethyl)benzonitrile]	11.1 nM	6.3 nM	
N#Cc1ccc(N2C[C@@H](COc3ccc([N+](=O)[O-])c(F)c3)O[C@@H]2C(F)(F)F)cc1C(F)(F)F [Example 31]	17.7 nM	14.1 nM	
N#Cc1ccc(N2C[C@@H](COc3ccc(Cl)cc3)O[C@@H]2C(F)(F)F)cc1C(F)(F)F [Example 56, 4-((2R,5S)-5-((4-chlorophenoxy)methyl)-2-(trifluoromethyl)oxazolidin-3-yl)-2-(trifluoromethyl)benzonitrile]	75.1 nM	75.1 nM	
CN(C)C(=O)c1ccc(OC[C@@H]2CN(c3ccc(C#N)c(C(F)(F)F)c3)[C@@H](C(F)(F)F)O2)cc1 [Example 34, 4-(((2R,5S)-3-(4-cyano-3-(trifluoromethyl)phenyl)-2-(trifluoromethyl)oxazolidin-5-yl)methoxy)-N,N-dimethylbenzamide]	111 nM		24.1 nM
